PMC5962653 (Frontiers in Microbiology, 2018)
Values after ≈ are worked out from the molar mass of the structure shown. Positions of bridges follow the written chain, without caps; N, C: chain ends. Non-standard residues stand in square brackets, D forms with d. Residues, ends and D or L forms follow the SMILES beside them. *: point of attachment. X1 = CC[C@H](C)CCCCC(=O)*; Dab = NCC[C@H](N)C(=O)O

Columns and labels:
Format in all cases: cell-based, Klebsiella pneumoniae
[1] = system: K. pneumoniae VIM-1/DHA-1 producer; conditions: colistin 2 mg/L (EUCAST breakpoint), rifampin 2 mg/L, alone or combined; inoculum 1 × 10^6 cfu/mL, 37°C, samples 0-24 h; three experiments
Method: (§1) (2016)]. […] Tubes were incubated at 37°C, with shaking, and samples were taken at 0, 1, 3, 6, and 24 h, serially diluted and plated using a spiral platter (Eddy Jet, IUL S.A., Barcelona, Spain). Bacterial colonies were counted using an automatic counter (Flash & Go, IUL S.A., Barcelona, Spain) ([Pournaras et al., 2011]; [Souli et al., 2011]). Experiments were performed three times on separate occasions. […] Bactericidal activities of single antibiotics or combination were defined as a decrease ≥ 3 log10 cfu/mL from the starting inoculum ([Souli et al., 2009]). Studies were performed in triplicate.
(§2) The RIF concentration used for all strains was 2 mg/L. RIF, filled circles; CST, filled squares; combination of both antimicrobials, filled triangles.

[2] = system: K. pneumoniae OXA-48 plus CTX-M-15 producer; conditions: at 24 h; colistin 0.5 mg/L
Method: as §1, §2

[3] = system: K. pneumoniae VIM-1 producer
Method: as §1, §2

[4] = system: K. pneumoniae KPC-3 producer; conditions: colistin 2 mg/L (EUCAST breakpoint), rifampin 2 mg/L, alone or combined; inoculum 1 × 10^6 cfu/mL, 37°C, samples 0-24 h; three experiments
Method: as §1, §2

[5] = system: K. pneumoniae VIM-1 producer (colistin-susceptible); experiment: In vitro selection of colistin-resistant mutants (time-kill curves); conditions: exposure at the MIC (0.5 mg/L) during 24 h in time-kill curves; sub-cultured twice antimicrobial free; increased from 0.5 mg/L
Method: (§3) MICs determinations of colistin and rifampin were carried out in triplicate.

[6] = system: K. pneumoniae OXA-48 plus CTX-M-15 producer (colistin-susceptible); experiment: as above; conditions: exposure at the MIC (0.5 mg/L) during 24 h in time-kill curves; sub-cultured twice antimicrobial free; increased from 0.5 mg/L
Method: as §3

[7] = system: K. pneumoniae Kp28, OXA-48 plus CTX-M-15 producer; experiment: MIC by broth microdilution (agar dilution for fosfomycin); conditions: for MIC: broth microdilution
Excerpt: (§4) Four genetically unrelated clinical isolates of CP-Kp were studied: Kp07, a VIM-1 ST 1603 clone producer ([Miro et al., 2013]); Kp21, which co-produced VIM-1 and the acquired AmpC type beta-lactamase DHA-1 ST 11 clone ([Miro et al., 2013]); Kp28, co-producing OXA-48 ST11 clone and the extended spectrum beta-lactamase (ESBL) CTX-M-15 ([Oteo et al., 2015]); and Kp29, co-producing KPC-3 ST512 clone with the broad spectrum beta-lactamases TEM-1 and SHV-11 ([Lopez-Cerero et al., 2014]), thereinafter VIM-1, VIM-1/DHA-1, OXA-48 plus CTX-M-15, and KPC-3 producers, respectively. Identification of these isolates was confirmed by a Microflex LT-MALDI Biotyper mass spectrometer (Bruker Daltonics GmbH, Bremen, Germany). The presence of carbapenemase genes, and genes coding for other beta-lactamases was confirmed by PCR and sequencing as described previously. The absence of genetic relation among the isolates was confirmed by PFGE analysis of chromosomal restriction fragments obtained after XbaI cleavage following the criteria of [Tenover et al. (1995)]. […] The antibiotic susceptibility profiles are included in the Supplementary Information.
(§5) MICs of antibiotics were determined by broth microdilution as recommended by the [Clinical and Laboratory Standards Institute [CLSI] (2012)], using Mueller Hinton broth II (MHB) (Becton Dickinson & Co., Sparks, MD, United States) and agar dilution method for fosfomycin. MIC results were interpreted according to the [European Committee on Antimicrobial Susceptibility Testing [EUCAST] (2016)]^1 breakpoints. Studies were performed in triplicate.

[8] = system: K. pneumoniae Kp29, KPC-3 producer; experiment: as above; conditions: for MIC: broth microdilution
Excerpt: as §4, §5

[9] = system: K. pneumoniae Kp21, VIM-1/DHA-1 producer; experiment: as above; conditions: for MIC: broth microdilution
Excerpt: as §4, §5

[10] = system: K. pneumoniae Kp07, VIM-1 producer; experiment: as above; conditions: for MIC: broth microdilution
Excerpt: as §4, §5

[11] = Table 1, Mueller Hinton broth II, CLSI, triplicate

SMILES: CC[C@H](C)CCCCC(=O)N[C@@H](CCN)C(=O)N[C@H](C(=O)N[C@@H](CCN)C(=O)N[C@H]1CCNC(=O)[C@H]([C@@H](C)O)NC(=O)[C@H](CCN)NC(=O)[C@H](CCN)NC(=O)[C@H](CC(C)C)NC(=O)[C@@H](CC(C)C)NC(=O)[C@H](CCN)NC1=O)[C@@H](C)O [Colistin, colistin] (X1-[Dab]T[Dab][Dab][Dab][dL]L[Dab][Dab]T; lactam 4-C (inferred); N-terminus assumed)
- Bactericidal activity in time-kill curves (decrease ≥ 3 log10 cfu/mL from the starting inoculum) [1]: did not display any bactericidal activity
- Regrowth in time-kill curves [2]: important regrowth at 24 h
- Regrowth in time-kill curves ([3]; at 24 h, colistin 0.5 mg/L): important regrowth at 24 h
- Bactericidal activity in time-kill curves (decrease ≥ 3 log10 cfu/mL from the starting inoculum) ([3]; colistin 0.5 mg/L (MIC), rifampin 2 mg/L, alone or combined, inoculum 1 × 10^6 cfu/mL, 37°C, samples 0-24 h, three experiments): bactericidal at 3 h
- Bactericidal activity in time-kill curves (decrease ≥ 3 log10 cfu/mL from the starting inoculum) [4]: did not display any bactericidal activity
- Colistin MIC of colonies recovered after exposure to colistin [5]: > 8 µg/mL
- Colistin MIC of colonies recovered after exposure to colistin [6]: > 8 µg/mL
- MIC [7, 11]: 0.5 [^∗] mg/L
- SIR, classification according to EUCAST definitions ([7]; supplement table, strain KPc28, EUCAST 2016 breakpoints, fosfomycin by agar dilution): S
- MIC ([7]; supplement table, strain KPc28): 0.5 mg/L (≈ 0.428 µM)
- MIC [8, 11]: 32 [^∗∗] mg/L
- SIR, classification according to EUCAST definitions ([8]; supplement table, strain KPc29, EUCAST 2016 breakpoints, fosfomycin by agar dilution): R
- MIC ([8]; supplement table, strain KPc29): > 32 mg/L
- MIC [9, 11]: 64 [^∗∗] mg/L
- SIR, classification according to EUCAST definitions ([9]; supplement table, strain KPc21, EUCAST 2016 breakpoints, fosfomycin by agar dilution): R
- MIC ([9]; supplement table, strain KPc21): > 32 mg/L
- MIC [10, 11]: 0.5 [^∗] mg/L
- SIR, classification according to EUCAST definitions ([10]; supplement table, strain KPc07, EUCAST 2016 breakpoints, fosfomycin by agar dilution): S
- MIC ([10]; supplement table, strain KPc07): 0.5 mg/L (≈ 0.428 µM)
